Data as given in US20240174622A1, “COMPOUND AND RADIOACTIVE LABELING COMPOUND” (NIHON MEDI-PHYSICS CO., LTD., priority 2021, published 2024).

How the values were obtained:
[1] = biological target: human serum albumin (HSA) (Homo sapiens, UniProt P02768); assay: Evaluation of binding to albumin (HSA solution, PBS control); settings: left to stand in HSA solution (45 mg/mL)
Method: Thereafter, the reaction liquids were added to a spin column (Sephadex G-100; manufactured by Cytiva), and centrifuged at 1500×g at 4° C. for 2 minutes. After separation, the radioactivity for each of the column and the eluate was measured with a gamma counter.
When a compound to be evaluated binds to albumin to form a composite, the compound passes through the column because of the increased molecular size.
As in Examples described above, PBS and human albumin were used to evaluate binding to albumin.
Thereafter, the reaction liquid was added to a spin column (Sephadex G-50; manufactured by Cytiva), and centrifuged at 1500×g at 4° C. for 2 minutes. After separation, the radioactivity of the column and the eluate was measured with a gamma counter.

[2] = system: LNCaP tumor-transplanted mouse; assay: Internal radioactivity distribution using LNCaP tumor-transplanted mouse; format: in vivo
Method: (§1) The animal test was performed in compliance with the guidelines of Kyoto University Animal Experiment Committee. Male CB17/IcrJcl-Prkdc^scid mice were purchased from CLEA Japan, Inc. The animals were kept under 12 h/12 h, day/night cycle conditions and fed ad libitum with food and water. LNCaP cells (1.0×10^7 cells/mouse) or PC-3 cells (1.0×10^7 cells/mouse) were suspended in a mixture of PBS and Matrigel manufactured by Corning Life Sciences (1:1, 150 μL) and the suspension was subcutaneously transplanted to the right shoulder of mice under isoflurane anesthesia. Thereafter, the mice were kept for 40 to 60 days.
LNCaP or PC-3 tumor-implanted mice were administered saline solutions (185 kBq, 100 μL) of [^111In]In-PSMA-DA1 or [^111In]In-PSMA-DB from the tail vein (n=3 each). Mice were euthanized 1, 4, 24, 48, 96, and 192 hours after administration. Thereafter, blood and each organ were recovered, and the mass and radioactivity of the organs were measured.
The percentage (% ID) of the radioactivity amount to the administered radioactivity amount (injected dose) is shown as the value (% ID/g) divided by the blood mass or the organ mass (g).
LNCaP tumor-implanted mice prepared by the same method as in Example 1-1 were administered a saline solution (241 kBq/100 μL) of [^111In]In-PtDA from the tail vein (n=3). Mice were euthanized 1, 24, and 48 hours after administration. Thereafter, blood and each organ were recovered, and the mass and radioactivity of the organs were measured.
LNCaP tumor-implanted mice prepared by the same method as in Example 1-1 were administered a saline solution (259 kBq/100 μL each) of each of the radiolabeled compounds in Examples 3-1 to 3-3 or Comparative Examples 2-1 to 2-2 from the tail vein (n=2 to 3). Mice were euthanized 1, 4, 24, 48, 96, and 192 hours after administration. Thereafter, blood and each organ were recovered, and the mass and radioactivity of the organs were measured.
as §1, with “LNCaP cells (4.3×10^6 cells/mouse) or” for “LNCaP cells (1.0×10^7 cells/mouse) or”, “PC-3 cells (3.3×10^6 cells/mouse) were” for “PC-3 cells (1.0×10^7 cells/mouse) were”, “shoulder of CB17/IcrJcl-Prkdc^scid mice under” for “shoulder of mice under”
Mice were euthanized 1, 4, 24, 48, 96, and 192 hours after administration. Thereafter, blood and each organ were recovered, and the mass and radioactivity of the organs were measured.
The results are shown in Table 12 (Mean value±standard deviation, n=3).

Sequence of human serum albumin (HSA) (P02768 25-609): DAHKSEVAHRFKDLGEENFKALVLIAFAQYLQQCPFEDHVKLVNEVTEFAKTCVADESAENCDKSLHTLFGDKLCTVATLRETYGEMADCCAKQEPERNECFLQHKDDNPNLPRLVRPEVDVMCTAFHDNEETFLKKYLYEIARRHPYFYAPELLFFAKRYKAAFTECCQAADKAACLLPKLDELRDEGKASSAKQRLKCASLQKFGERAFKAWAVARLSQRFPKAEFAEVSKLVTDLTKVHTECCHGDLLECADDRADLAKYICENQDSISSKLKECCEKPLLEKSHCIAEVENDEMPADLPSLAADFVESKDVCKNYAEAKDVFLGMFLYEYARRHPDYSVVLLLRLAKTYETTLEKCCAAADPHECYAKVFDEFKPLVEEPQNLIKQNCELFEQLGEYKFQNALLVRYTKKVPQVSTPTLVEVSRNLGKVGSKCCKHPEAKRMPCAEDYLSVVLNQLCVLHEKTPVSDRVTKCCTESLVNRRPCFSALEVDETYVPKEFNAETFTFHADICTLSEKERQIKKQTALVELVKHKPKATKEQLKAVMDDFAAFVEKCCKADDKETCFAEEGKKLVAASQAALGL

With `O=C([O-])CN(CCN(CCc1ccc(NC(=O)CCCCCNC(=O)CCC(=O)NCCCC[C@H](NC(=O)N[C@@H](CCC(=O)O)C(=O)O)C(=O)O)cc1)CCN(CC(=O)[O-])Cc1cccc(C(=O)[O-])n1)Cc1cccc(C(=O)[O-])n1.[111In+3]` [[^111In]In-Neunpa-1, reference compound] the “radioactivity in the eluate (in words)” value [1] was “low”, the Blood ([2]; 1 h after administration) was 2.30 ± 0.28 % ID/g and the Brain ([2]; 1 h after administration) was 0.05 ± 0.00 % ID/g. For the same compound, the Heart ([2]; 1 h after administration) was 0.70 ± 0.03 % ID/g, the Intestine ([2]; 1 h after administration) was 0.47 ± 0.03 % ID/g and the Kidney ([2]; 1 h after administration) was 214 ± 53.0 % ID/g. The “LNCaP Tumor” value ([2]; 1 h after administration) was 1.06 ± 0.21 % ID/g, the Liver ([2]; 1 h after administration) was 0.60 ± 0.07 % ID/g and the Lung ([2]; 1 h after administration) was 1.75 ± 0.18 % ID/g. For the same compound, the Muscle ([2]; 1 h after administration) was 0.28 ± 0.06 % ID/g, the Pancreas ([2]; 1 h after administration) was 0.57 ± 0.14 % ID/g and the Spleen ([2]; 1 h after administration) was 6.83 ± 1.70 % ID/g. For the same compound, the “Stomach (% ID)” value ([2]; 1 h after administration) was 0.17 ± 0.02 % ID, the Blood ([2]; 4 h after administration) was 1.24 ± 0.15 % ID/g and the Brain ([2]; 4 h after administration) was 0.04 ± 0.00 % ID/g. For the same compound, the Heart ([2]; 4 h after administration) was 0.47 ± 0.08 % ID/g, the Intestine ([2]; 4 h after administration) was 0.66 ± 0.08 % ID/g and the Kidney ([2]; 4 h after administration) was 125 ± 89.2 % ID/g. The “LNCaP Tumor” value ([2]; 4 h after administration) was 0.69 ± 0.30 % ID/g, the Liver ([2]; 4 h after administration) was 0.69 ± 0.05 % ID/g and the Lung ([2]; 4 h after administration) was 1.03 ± 0.13 % ID/g. It also gave a Muscle ([2]; 4 h after administration) of 0.11 ± 0.04 % ID/g, a Pancreas ([2]; 4 h after administration) of 0.50 ± 0.13 % ID/g and a Spleen ([2]; 4 h after administration) of 4.76 ± 1.17 % ID/g. For the same compound, the “Stomach (% ID)” value ([2]; 4 h after administration) was 0.11 ± 0.03 % ID, the Blood ([2]; 24 h after administration) was 0.20 ± 0.02 % ID/g and the Brain ([2]; 24 h after administration) was 0.02 ± 0.01 % ID/g. It also gave a Heart ([2]; 24 h after administration) of 0.21 ± 0.01 % ID/g, an Intestine ([2]; 24 h after administration) of 0.32 ± 0.02 % ID/g and a Kidney ([2]; 24 h after administration) of 13.5 ± 0.43 % ID/g. For the same compound, the “LNCaP Tumor” value ([2]; 24 h after administration) was 0.28 ± 0.02 % ID/g, the Liver ([2]; 24 h after administration) was 0.69 ± 0.05 % ID/g and the Lung ([2]; 24 h after administration) was 0.34 ± 0.05 % ID/g. The Muscle ([2]; 24 h after administration) was 0.10 0.00 % ID/g, the Pancreas ([2]; 24 h after administration) was 0.28 ± 0.03 % ID/g and the Spleen ([2]; 24 h after administration) was 2.74 ± 0.07 % ID/g. The “Stomach (% ID)” value ([2]; 24 h after administration) was 0.05 ± 0.00 % ID, the Blood ([2]; 48 h after administration) was 0.09 ± 0.03 % ID/g and the Brain ([2]; 48 h after administration) was 0.03 ± 0.01 % ID/g. For the same compound, the Heart ([2]; 48 h after administration) was 0.18 ± 0.05 % ID/g, the Intestine ([2]; 48 h after administration) was 0.32 ± 0.06 % ID/g and the Kidney ([2]; 48 h after administration) was 25.2 ± 17.1 % ID/g. The “LNCaP Tumor” value ([2]; 48 h after administration) was 0.30 ± 0.11 % ID/g, the Liver ([2]; 48 h after administration) was 0.80 ± 0.13 % ID/g and the Lung ([2]; 48 h after administration) was 0.32 ± 0.04 % ID/g. It also gave a Muscle ([2]; 48 h after administration) of 0.10 ± 0.03 % ID/g, a Pancreas ([2]; 48 h after administration) of 0.38 ± 0.06 % ID/g and a Spleen ([2]; 48 h after administration) of 2.62 ± 0.79 % ID/g. The “Stomach (% ID)” value ([2]; 48 h after administration) was 0.09 ± 0.06 % ID, the Blood ([2]; 96 h after administration) was 0.06 ± 0.02 % ID/g and the Brain ([2]; 96 h after administration) was 0.03 ± 0.00 % ID/g. It also gave a Heart ([2]; 96 h after administration) of 0.28 ± 0.06 % ID/g, an Intestine ([2]; 96 h after administration) of 0.16 ± 0.07 % ID/g and a Kidney ([2]; 96 h after administration) of 15.1 ± 4.76 % ID/g. For the same compound, the “LNCaP Tumor” value ([2]; 96 h after administration) was 0.32 ± 0.09 % ID/g, the Liver ([2]; 96 h after administration) was 0.77 ± 0.07 % ID/g and the Lung ([2]; 96 h after administration) was 0.39 ± 0.06 % ID/g. The Muscle ([2]; 96 h after administration) was 0.09 ± 0.03 % ID/g, the Pancreas ([2]; 96 h after administration) was 0.32 ± 0.02 % ID/g and the Spleen ([2]; 96 h after administration) was 2.47 ± 0.60 % ID/g. The “Stomach (% ID)” value ([2]; 96 h after administration) was 0.07 ± 0.03 % ID, the Blood ([2]; 192 h after administration) was 0.01 % ID/g and the Brain ([2]; 192 h after administration) was 0.03 % ID/g. It also gave a Heart ([2]; 192 h after administration) of 0.22 % ID/g, an Intestine ([2]; 192 h after administration) of 0.06 % ID/g and a Kidney ([2]; 192 h after administration) of 2.79 % ID/g. For the same compound, the “LNCaP Tumor” value ([2]; 192 h after administration) was 0.15 % ID/g, the Liver ([2]; 192 h after administration) was 0.63 % ID/g and the Lung ([2]; 192 h after administration) was 0.20 % ID/g. It also gave a Muscle ([2]; 192 h after administration) of 0.07 % ID/g, a Pancreas ([2]; 192 h after administration) of 0.37 % ID/g and a Spleen ([2]; 192 h after administration) of 1.05 % ID/g. For the same compound, the “Stomach (% ID)” value ([2]; 192 h after administration) was 0.02 % ID.
